The subject of one assay is HT-29 cells. The assay is described as follows: Soft agar colony assay (clonal proliferation). The class given is cell-based. The note with it: Homo sapiens, 336 h, colonies counted after 14 days, read-out: concentration that caused 50% inhibition (ED50) of clonal growth. As to the method: (§1) A soft agar colony assay was used to test the effect of paricalcitol and 1,25(OH)2D3 on various cancer cell lines. For the soft agar colony assay, trypsinized and washed single-cell suspensions of cells were enumerated and plated into 24 well flat bottom plates using a two-layer soft agar system with a total of 1×10^3 cells/well in a volume of […], as described previously (Kubota et al., supra, 1998).
(§2) Cell lines used in this study were obtained from American Type Culture Collection (Rockville, Md.) and were maintained according to their recommendations. Myeloid leukemia cell lines (HL-60, NB-4, THP-1, U937), lymphoma cell lines (Raji, Ramos, Daudi, Jurkat, Jeko-1, JUDHL) and myeloma cell lines (RPMI-8226, ARH-77, NCI-H929) were grown in RPMI 1640 with 10% FCS. Breast cancer cell lines (MCF-7, MDA-MB-231), brain cancer cell lines (U343, U118, U138, U373, U87), and colon cancer cell lines (HT-29, SW837, SW480, SW620, HCT116) were maintained in DMEM with 10% FCS. Endometrial carcinoma cell line, AN-3 was maintained in Alpha Minimum Essential Medium (a-MEM) with 10% FCS.

The next assay concerns NCI-H929 cells. The assay is described as follows: Soft agar colony assay (clonal proliferation). The class given is cell-based. The note with it: Homo sapiens, 336 h, colonies counted after 14 days, read-out: concentration that caused 50% inhibition (ED50) of clonal growth. As to the method: as §1, §2
In the next assay the test system is NB-4 cells. Nature of the assay: Soft agar colony assay (clonal proliferation). The class given is cell-based. The conditions noted are these: Homo sapiens, 336 h, colonies counted after 14 days, read-out: concentration that caused 50% inhibition (ED50) of clonal growth. As to the method:
as §1, §2

In a further assay the test system is SW837. Nature of the assay: Soft agar colony assay (clonal proliferation). The class given is cell-based. The conditions noted are these: Homo sapiens, 336 h, colonies counted after 14 days, read-out: concentration that caused 50% inhibition (ED50) of clonal growth. As to the method:
as §1, §2

For the next assay, the system named is HL-60 cells. The assay is described as follows: Soft agar colony assay (clonal proliferation). In kind it is cell-based. The conditions noted are these: Homo sapiens, 336 h, colonies counted after 14 days, read-out: concentration that caused 50% inhibition (ED50) of clonal growth. As to the method:
as §1, §2

Another assay relates to THP-1. Nature of the assay: Soft agar colony assay (clonal proliferation). The conditions noted are these: Homo sapiens, 336 h, colonies counted after 14 days, read-out: concentration that caused 50% inhibition (ED50) of clonal growth. The class given is cell-based. As to the method: as §1, §2
For the next assay, the system named is NCI-H929 myeloma cells. The conditions noted are these: 4 days exposure.
A further assay concerns 24-hydroxylase mRNA. Nature of the assay: RT-PCR of 24-hydroxylase mRNA, spleen mononuclear cells of wild type mice. The class given is cell-based. The conditions noted are these: 10^−8 M. As to the method:
In FIG. 6B, HT-29 colon cancer cells were treated with paricalcitol (10^−7M) for 0, 6, 12 or 24 hrs and RNA was harvested. Expression of 24 hydroxylase mRNA was analysed by RT-PCR. The amounts of mRNA were normalized by comparison to 18S RNA. In FIG. 6C, mononuclear cells extracted from spleens of either wild type or VDR knock-out mice were treated with paricalcitol (10^−8M) for either 12 or 24 hrs, and RNA was harvested. Expression of 24 hydroxylase mRNA was analysed by RT-PCR. The amounts of mRNA were normalized by comparison to 18S RNA. For the PCR analysis, RNA extraction and reverse transcription were done by TRIzole (Invitrogen, Carlsbad, Calif.) and reverse transcriptase (Promega, Madison, Wis.). A twenty-microliter volume of cDNA was prepared from 1 μg of RNA. cDNAs were amplified by PCR with specific primers for 24-hydroxylase and 18S. The cycle number was 25 for 18S and 32 for 24-hydroxylase. […] The VDR KO Mouse and Colony-Forming Assay was performed as follows. VDR KO mice were generated and genotypes were determined by Southern Blot Analysis as described previously (O'Kelly et al., supra, 2002). For experiments using VDR KO mice, their wild-type (WT) littermates were used as controls. Mice were killed by cervical neck dislocation. […] Colonies were counted after 2 weeks. […]

Assay [1] concerns mononuclear bone marrow cells from wild type (WT) mice. The assay is described as follows: Colony-forming assay in methylcellulose, wild type mice. In kind it is cell-based. The conditions noted are these: 10^−8 M. The source says:
In FIG. 6D, colony formation by mononuclear bone marrow cells from VDR knock-out (VDR-KO) and wild type (WT) mice is shown. Mononuclear cells were obtained from femoral bone marrow plugs and grown in methylcellulose culture media with either paricalcitol (10^−8M) or diluant. Colonies were counted on day 10 of culture. The number of total colonies (average) were 87 (control) and 66 (paricalcitol 10^−8M) in wild type mice, and 110 (control) and 122 (paricalcitol 10^−8M) in VDR-KO mice. The percentage of macrophage, granulocyte and mixed granulocyte/macrophage colonies are shown. Triplicate wells for each mouse and a total of three KO and three WT mice were studied. G, granulocyte colonies; G/M mixed granulocyte/macrophage colonies; M, macrophage colonies.
The VDR KO Mouse and Colony-Forming Assay was performed as follows. VDR KO mice were generated and genotypes were determined by Southern Blot Analysis as described previously (O'Kelly et al., supra, 2002). For experiments using VDR KO mice, their wild-type (WT) littermates were used as controls. Mice were killed by cervical neck dislocation. Bone marrow was flushed out of isolated femurs with (a-MEM; Gibco BRL, Grand Island, N.Y., USA) including 10% FCS using a 26-gauge needle. Isolated spleens were injected with DMEM (Gibco BRL) plus 10% FCS and crushed with forceps to release cells. Mononuclear cells from bone marrow or spleen were separated by Ficoll-Hypaque density centrifugation (Amersham Pharmacia, Uppsala, Sweden). Resuspended mononuclear bone marrow cells (2×10^4 cells/ml) and growth factors were added 1:10 to methylcellulose medium M3234 (StemCell Technologies Inc., Vancouver, British Columbia, Canada) to yield a final concentration of 1% methylcellulose, 30% FCS, 1% BSA, 10^-4M mercaptoethanol, and 2 mM L-glutamine as described previously (19). Cells were plated in six-well plates in a volume of 1 ml and incubated at 37° C. in a humidified atmosphere containing 5% CO2. Colonies were counted after 2 weeks. Colony type was established by morphology; and to ensure accurate determination, representative colonies were plucked from the plates, centrifuged onto slides, stained with Wright-Giemsa stain and examined by light microscopy.

Each structure is given as a SMILES string.

With `C[C@H](/C=C/[C@H](C)C(C)(C)O)[C@H]1CC[C@H]2/C(=C/C=C3C[C@@H](O)C[C@H](O)C3)CCC[C@]12C` [paricalcitol, 19-nor-1,25, (OH)2D3], the EC50 in the assay with HT-29 cells is 17 nM; with NCI-H929 cells it was 0.02 nM; in the assay on NB-4 cells, 3.4 nM; in the assay with SW837, 46 nM; in the assay with HL-60 cells it was 2.4 nM; with THP-1, 5.8 nM. The “antiproliferative effect by MTT assay” value with NCI-H929 myeloma cells is “sensitive”. Also, in the assay with 24-hydroxylase mRNA, the “time within which 24-hydroxylase mRNA expression was induced” value is at most 12 h. Also, the “percentage of granulocyte colonies” value in assay [1] (control 23±4%) was 6±3%. For the same compound, the “percentage of macrophage colonies” value in [1] (control 32±4%) stood at 69±2%. In addition, the “percentage of mixed colonies” value in assay [1] (control 43±7%) stood at 25±5%. Also, the “number of total colonies (average)” value in assay [1] (control 87) was determined as 66.

Source of the values: US20050054620A1, “Paricalcitol as a chemotherapeutic agent” (priority 2003, published 2005).
